Measured values as given in patent US6780853B1, “Neuroactive steroids of the androstane and pregnane series” (priority 1995, dated 2004).
Counter-ions that a name gives are not always drawn.

Target: GABA receptor complex (GRC)
Assay: [35S]TBPS binding in rat cerebral cortex P2 homogenate
Conditions: for IC50: concentration to inhibit 50% of control [35S]TBPS binding, 2 nM [35S]TBPS; for IMAX (maximum inhibition): maximum inhibition of [35S]TBPS binding
Text: To those skilled in the art, it is known that the modulation of [^35S]t-butylbicyclophosphorothionate ([^35S]TBPS) binding is a measure of the potency and efficacy of drugs acting at the GRC, which drugs may be of potential therapeutic value in the treatment of stress, anxiety, and seizure disorders (Squires, R. F., et al., Mol, Pharmacol., 23:326 (1983); Lawrence, L. J., et al., Biochem. Biophys. Res. Comm., 123:1130-1137 (1984); Wood, et al., Pharmacol, Exp. Ther., 231:572-576 (1984)). Several experiments were performed previously to determine the nature of the modulation of [^35S]TBPS as affected by neuroactive steroids. […] Furthermore, these compounds have high potency and efficacy at the GRC, with stringent structural requirements for such activity.
The procedures for performing this assay are fully discussed in: (1) Gee, K. W. et al., European Journal of Pharmacology, 136:419-423 (1987)); and (2) Gee, et al., Molecular Pharmacology 30:218 (1986). These procedures were performed as follows:
Brains from male Sprague-Dawley rats were removed immediately following sacrifice and the cerebral cortices dissected over ice. A P2 homogenate was prepared as previously described (Gee, et al., Molecular Pharmacology 30:218 (1986)). Briefly, the cortices were gently homogenized in 032 M sucrose followed by centrifugation at 1000×g for 10 minutes. The supernatant was collected and centrifuged at 9000×g for 20 minutes. The resultant P2 pellet was suspended as a 10% (original wet weight/volume) suspension in 50 mM Na/K phosphate buffer (pH 7.4) 200 mM NaCl to form the homogenate.
One hundred microliter […] aliquots of the P2 homogenate (0.5 milligrams (mg) protein) were incubated with 2 nanomolar (nM) [^35S]TBPS (70-110 curies/millimole; New England Nuclear, Boston, Mass.) in the presence or absence of the naturally occurring steroids or their synthetic derivatives to be tested. The tested compounds were dissolved in dimethylsulfoxide (Baker Chem. Co., Phillipsburg, N.J.) and added to the incubation mixture in 5 μL aliquots. The incubation mixture was brought to a final volume of 1 mL with buffer. Non-specific binding was defined as binding in the presence of […]. The effect and specificity of GABA (Sigma Chem. Co., St. Louis, Mo.) was evaluated by performing all assays in the presence of GABA plus (+)bicuculline (Sigma Chem. Co.). Incubations maintained at 25° C. for 90 minutes (steady state conditions) were terminated by rapid filtration through glass fiber filters (No. 32, Schleicher and Schuell, Keene, N.H.). Filter-bound radioactivity was quantitated by liquid scintillation spectrophotometry. Kinetic data and compound/[^35S]TBPS dose-response curves were analyzed by nonlinear regression using a computerized iterative procedure to obtain rate constants and IC50 (concentration of compound at which half-maximal inhibition of basal [^35S]TBPS binding occurs) values.
Various compounds were screened to determine their potential as modulators of [^35S]TBPS binding in vitro. These assays were performed in accordance with the above discussed procedures. Based on these assays, we have established the structure-activity requirements for their specific interaction at the GRC and their rank order potency and efficacy. Experimental data obtained in this assay for a number of 3α-hydroxypregnan-20-one derivatives is discussed in Gee, K. W. et al., European Journal of Pharmacology, 136:419-423 (1987) and in U.S. Pat. No. 5,232,917. Table 1 provides IC50 and maximum inhibition (IMAX) measurements for numerous compounds, including examples of compounds disclosed and claimed herein. IC50 is defined as concentration of compounds to inhibit 50% of control [^35S]TBPS binding. It is an indication of a compound's in vitro potency. Maximum inhibition is an indication of a compound's in vitro efficacy.

Row | SMILES | IC50 [µM] | IMAX (maximum inhibition) [%]
1 | C[C@@]1(O)CC[C@@]2(C)[C@@H](CC[C@@H]3[C@@H]2CC[C@]2(C)[C@@H](C(=O)COc4ccc5ncccc5c4)CC[C@@H]32)C1 [3α-hydroxy-3β-methyl-21-(quinolin-6-yloxy)-5α-pregnan-20-one] | 0.076 | 96
2 | C#CC1(O)CCC2(C)C(CCC3C2CCC2(C)C(C(=O)CSCCCOS(=O)(=O)O)CCC32)C1 (stereo not drawn) [3β-Ethynyl-3α-hydroxy-21-thiopropanesulfate-5β-pregnan-20-one sodium salt] | 0.113 | 104
3 | C#CC1(O)CCC2(C)C(CCC3C2CCC2(C)C(C(=O)CSCCOS(=O)(=O)O)CCC32)C1 (stereo not drawn) [3β-ethynyl-3α-hydroxy-21-thioethanesulfate-5β-pregnan-20-one trimethyl ammonium salt] | 0.322 | 101
4 | C[n+]1cccc2cc(OCC(=O)C3CCC4C5CCC6CC(C)(O)CCC6(C)C5CCC34C)ccc21 (stereo not drawn) [3α-hydroxy-3β-methyl-21-(quinolin-6-yloxy)-5α-pregnan-20-one N-methyl iodide] | 0.252 | 102
5 | CC(=O)[C@H]1CC[C@H]2[C@@H]3CC[C@H]4C[C@@H](O)CC[C@]4(C)[C@H]3CC[C@]12C [3β-Hydroxy-5α-pregnan-20-one, reference compound] | > 1000 | 33
6 | C[n+]1ccc(SCC(=O)C2CCC3C4CCC5CC(O)CCC5(C)C4CCC23C)cc1 (stereo not drawn) [3α-Hydroxy-21-(4′-pyridyl)thio-5β-pregnan-20-one N-methyl io] [3α-hydroxy-21-(pyrid-4-ylthio)-5β-pregnan-20-one N-methyl iodide] | 0.263 | 53
7 | CC(C)O[C@H]1C[C@@]2(C)[C@@H](CC[C@H]3[C@@H]4CCC[C@@]4(C)CC[C@@H]32)C[C@@H]1O [3α-Hydroxy-2β-isopropoxy-5α-androstane, 2β-Isopropoxy-3α-hydroxy-5α-androstane] | 0.456 | 98
8 | CC12CCC(O)CC1CCC1C2CCC2(C)C(C(=O)COc3ccc[n+]([O-])c3)CCC12 (stereo not drawn) [3α-Hydroxy-21-(3′-pyridyl)oxy-5β-pregnan-20-one N-oxide] | 0.292 | 62
9 | C[C@@]12CCC[C@H]1[C@@H]1CC[C@@H]3C[C@H](O)CC[C@]3(C)[C@H]1CC2 [3α-Hydroxy-5β-androstane, reference compound] | 0.815 | 83
10 | C#CC1(O)CCC2(C)C(CCC3C2CCC2(C)C(C(=O)CSCCC(=O)O)CCC32)C1 (stereo not drawn) [3β-ethynyl-3α-hydroxy-21-thiopropanoate-5β-pregnan-20-one sodium salt] | 1.02 | 101
11 | CO[C@H]1CC[C@H]2[C@@H]3CC[C@H]4C[C@H](O)[C@@H](OC(C)C)C[C@]4(C)[C@H]3CC[C@]12C [3α-Hydroxy-2β-isopropoxy-17β-methoxy-5α-androstane] | 0.026 | 100
12 | C#C[C@@]1(O)CC[C@@]2(C)[C@H](CC[C@@H]3[C@@H]2CC[C@]2(C)[C@@H](C(=O)CSCCO)CC[C@@H]32)C1 [3β-Ethynyl-3α-hydroxy-21-hydroxyethylthio-5β-pregnan-20-one] | 0.18 | 103
13 | CC(=O)c1ccc(C#CC2(O)CCC3C(CCC4C3CCC3(C)CCCC43)C2)cc1 (stereo not drawn) [3α-Hydroxy-3β-(4′-acetylphenyl)ethynyl-5β-19-norandrostane] | 0.492 | 99
14 | CCCO[C@H]1C[C@@]2(C)[C@@H](CC[C@@H]3[C@@H]2CC[C@]2(C)[C@@H](C(=O)CSCCCS(=O)(=O)[O-])CC[C@@H]32)C[C@@H]1O.[Na+] [3α-hydroxy-2β-propoxy-21-thiopropanesulfonate-5α-pregnan-20-one sodium salt] | 0.067 | 101
15 | COCC1(O)CCC2(C)C(CCC3C2CCC2(C)C(C(=O)CS(=O)(=O)c4ccc(N5CCCC5)cc4)CCC32)C1 (stereo not drawn) [3α-Hydroxy-3β-methoxymnethyl-21-(4′-pyrrolidinophenyl)sulfonyl-5α-pregnan-20-one] | 0.208 | 101
16 | CCCOC1CC2(C)C(CCC3C2CCC2(C)C(C(=O)COc4ccc([N+](C)(C)C)cc4)CCC32)CC1O (stereo not drawn) [3α-hydroxy-2β-propoxy-21-(4′-N,N,N-trimethylammoniumphenoxy)-5α-pregnan-20-one iodide salt] | 0.129 | 92
17 | COCC1(O)CCC2(C)C(CCC3C2CCC2(C)C(C(=O)CSc4ccncc4)CCC32)C1 (stereo not drawn) [3α-hydroxy-3β-methoxymethyl-21-(pyrid-4-ylthio)-5α-pregnan-20-one] | 0.038 | 106
18 | CO[C@H]1CC[C@H]2[C@@H]3CC[C@H]4C[C@](C)(O)CC[C@]4(C)[C@H]3CC[C@]12C [3α-Hydroxy-17β-methoxy-3βmethyl-5α-androstane] | 0.097 | 97
19 | C[C@]12C[C@H](O)[C@H]3[C@@H](CCC4=CC(=O)CC[C@@]43C)[C@@H]1CC[C@@H]2C(=O)CO [4-Pregnan-11β,21-diol-3,20-dione, reference compound] | > 1000 | 30
20 | C#CC1(O)CCC2(C)C(CCC3C2CCC2(C)C(C(=O)C[S+]([O-])CCCO)CCC32)C1 (stereo not drawn) [3β-Ethynyl-3α-hydroxy-21-hydroxpropylsulfinyl-5β-pregnan-20-one] | 0.782 | 107
21 | COC1CCC2C3CCC4CC(O)(C(F)(F)F)CCC4(C)C3CCC12C (stereo not drawn) [3α-Hydroxy-17β-methoxy-3β-trifluoromethyl-5α-androstane] | 0.341 | 100
22 | C[C@]12CC[C@@H](O)C[C@H]1CC[C@@H]1[C@@H]2CC[C@]2(C)[C@@H](C(=O)CCc3ccncc3)CC[C@@H]12 [3α-Hydroxy-21-(4-pyridylmethyl)-5β-pregnan-20-one] | 0.187 | 103
23 | C[C@]12CC[C@@H](O)C[C@H]1CC[C@@H]1[C@@H]2CC[C@]2(C)[C@@H](C(=O)COc3ccncc3)CC[C@@H]12 [3α-Hydroxy-21-(pyrid-4-yloxy)-5β-pregnan-20-one] | 0.045 | 76
24 | C[C@]12CC[C@@H]3c4ccc(O)cc4CC[C@H]3[C@@H]1CC[C@@H]2O [17β-Estradiol, reference compound] |  | 0
25 | C#C[C@@]1(O)CC[C@@]2(C)[C@@H](CC[C@@H]3[C@@H]2CC[C@]2(C)[C@@H](C(=O)CSc4ccncc4)CC[C@@H]32)C1 [3β-ethynyl-3α-hydroxy-21-(pyrid-4-ylthio)-5α-pregnan-20-one] | 0.043 | 103
26 | C#CCO[C@H]1CC[C@H]2[C@@H]3CC[C@H]4C[C@](C)(O)CC[C@]4(C)[C@H]3CC[C@]12C [3α-Hydroxy-3β-methyl-17β-(2-propynyloxy)-5α-androstane] | 0.163 | 94
27 | C#CC1(O)CCC2(C)C(CCC3C2CCC2(C)C(C(=O)CSCCCS(=O)(=O)O)CCC32)C1 (stereo not drawn) [3β-ethynyl-3α-hydroxy-21-thiopropanesulfonate-5β-pregnan-20-one sodium salt] | 0.343 | 97
28 | C[n+]1ccc(SCC(=O)C2CCC3C4CCC5CC(O)CCC5(C)C4CCC23C)cc1 (stereo not drawn) [3α-Hydroxy-21-(pyrid-4-ylthio)-5α-pregnan-20 -one N-methyl i] [3α-Hydroxy-21-(pyrid-4-ylthio)-5α-pregnan-20-one N-methyl iodide] | 0.188 | 100
